SMILES | melting point [°C]
CCOC(Nc1ccccc1)(OCC)C1(Cl)C=C(C)N=C(C(=O)c2ccc(Cl)cc2)C1 (configuration not stated) | 134 to 135
O=S(=O)(C(=CNc1ccccc1C(F)(F)F)S(=O)(=O)c1ccc(Cl)cc1)c1ccc(Cl)cc1 | 169 to 171
CCSC1=N[C@@H](c2ccc(OC)cc2)[C@@H](c2ccc(OC)cc2)N1 | 92 to 93
CC1c2ccccc2CC(C)(O)Cc2ccccc21 (configuration not stated) | 100 to 135
Cc1ccc(N2CCC(N)=N2)cc1 | 142 to 143
O=C(CNc1ccc(S(=O)(=O)O)cc1)c1ccccc1 | > 300
O=C1OCCC1N1CCCC1=O (configuration not stated) | 80 to 81
O=C(NC1=Nc2cc(OCCn3cccc3)ccc2C2=NCCN12)c1cccnc1 | 209
CCCCCCCCCOC(=O)c1cc(-c2csc(-c3ccc(OCC)c(OCC)c3)n2)ccc1O | 67 to 68
CCc1ncnc(NC2CCC3(CC2)OCC(CO)O3)c1Cl (configuration not stated) | 97 to 98
O=S(=O)(Nc1ccc(Oc2ccc3cccnc3c2)cc1)c1ccc(Cl)cc1 | 208
Oc1ccc(C2OCC3(CO2)COC(c2ccc(O)cc2)OC3)cc1 (configuration not stated) | 251 to 253
FC(F)(F)c1cccc(Oc2cc(Oc3cccc(C(F)(F)F)c3)nc(Br)n2)c1 | 126 to 129
FC(F)(F)C1(c2cc(Cl)cc(Cl)c2)CC(c2cnc(Cl)c(Cl)c2)=NO1 (configuration not stated) | 155 to 157
O=C1CCC(CCC(=O)OCc2ccccc2)N1 (configuration not stated) | 79 to 80
CNC1CCc2[nH]c3cccc(C)c3c2C1 (configuration not stated) | 163 to 166
O=C(NCCC1CCCCC1)NCCC1CCCCC1 | 150 to 152
CNC(=N)N(C)Cc1ccc(C)cc1 | 118 to 125
CC(=O)N(C)C1CCC(O)(c2ccc(Cl)c(Cl)c2)c2ccccc21 (configuration not stated) | 146 to 148

SMILES | melting point [°C]
CC(C)CC(=O)Nc1cccc(-c2ccnc3c(-c4ccc(CO)cc4)cnn23)c1 | 170 to 172
COc1cc(OC)cc(-c2ncn(-c3cc(OC)c(OC)c(OC)c3)c2-c2ccc(N(C)C)cc2)c1 | 151 to 154
O=S(=O)(C(=Cc1ccc(Cl)cc1)SC(=Cc1ccc(Cl)cc1)S(=O)(=O)c1ccccc1)c1ccccc1 | 251
COc1ccc2cc([C@H](C)C(=O)OCC(C)(CO)CO)ccc2c1 | 105
COc1ccc(S(=O)(=O)CC(O)(CS(=O)(=O)c2ccc(OC)cc2)C(=O)NO)cc1 | 75 to 80
COc1ccc(N2CCOCC2)c2sc(C(N)=S)nc12 | 238
CC(C)Oc1ccc(NC(=S)NCc2ccsc2)cc1 | 80.5 to 81.5
CC(O)Cc1cccc(Nc2nccc(-c3sc(N)nc3-c3ccccc3)n2)c1 (configuration not stated) | 219 to 220
O=C(CCCCCBr)Nc1ccc(O)cc1F | 66 to 69
Cc1cc(COc2ccc(C(=O)NC[C@@H](C(=O)NO)N3CCN(S(=O)(=O)C(C)C)CC3)cc2)c2ccccc2n1 | 188
COC(=O)c1ccc2ccccc2c1OCC(F)(F)F | 69.5 to 70.5
COC1=C(OC)C(=O)C(CCCCCCCCCCCCCO)=C(C)C1=O | 65 to 66
CN(N)c1ccc(-c2ccc(Cl)cc2)nn1 | 170 to 172
C[C@@H](NC(=O)c1ccc(-c2ccc(Cl)cc2)cc1)[C@](O)(Cn1cncn1)c1ccc(F)cc1F | 173 to 174
CC1CCN(C(=O)Oc2ccccc2-c2ccccc2)CC1 | 85 to 86
CN1C(=O)C(CCCCNC(=O)OCc2ccccc2)NC1=S (configuration not stated) | 135
COc1ccccc1-n1c(-c2sc(Nc3ccccc3)nc2-c2ccccc2)nc2ccccc2c1=O | 224 to 225
CCCCOC1c2ccccc2C(=O)N(CC2CC2)C1(/C=C/C(N)=O)CNC(=O)OC(C)(C)C (configuration not stated) | 198 to 199

Second part, the compound after the results:

melting point [°C] | SMILES
111 to 112 | CC(C)Cn1c(=O)n(C)c(=O)c2c(OCCCO)c(Cc3cccnc3)sc21
186 | CCn1c(N)c(-c2ncc[nH]2)c(=O)c2ccc(-c3ccc(C(C)C(=O)NCc4ccncc4)cc3)nc21 (configuration not stated)
116 to 118 | Cc1nc(-c2ccc(-c3cscn3)cc2)c(-c2ccc(S(N)(=O)=O)c(F)c2)o1
171 to 173 | Cc1ccc2c(Cl)nccc2c1[N+](=O)[O-]
129 to 130 | Cc1oc(C=Cc2ccc(Cl)cc2)nc1CO
50 to 51 | CCCNC(=O)n1nc(Oc2ccc(C(F)(F)F)cc2[N+](=O)[O-])cc1C
167 to 170 | COCc1cccc(-c2nn(C(C)c3oc4ccccc4c(=O)c3-c3cccc(F)c3)c3ncnc(N)c23)c1 (configuration not stated)
98 to 100 | Cc1ncnc(C)c1N
160 to 162 | COc1ccc(S(=O)(=O)Nc2cccnc2NC(=O)c2ccccc2C)cc1
89 to 91 | Cc1cc(Oc2ccc(C(F)(F)F)cc2[N+](=O)[O-])n[nH]1
128 to 130 | COc1c(C)c2c(c(O)c1C/C=C1\CCC(C(=O)O)C1)C(=O)OC2 (configuration not stated)
126 to 128 | CC(C)C1Cc2cc(OCC(=O)O)cc(Cl)c2C1=O (configuration not stated)
170 to 172 | O=Cc1cc2c(s1)CCCc1cc(=O)n(-c3ccc(Cl)cc3)nc1-2
218 to 219 | CONS(=O)(=O)c1ccccc1S(=O)(=O)NC(=O)Nc1nc(C)cc(C)n1
148 to 150 | CCN(CC)CC(O)c1c[nH]c2c1ccc1c3ccccc3[nH]c12 (configuration not stated)
212 | CN1CCn2c1nc(C(=O)NCc1ccc(F)cc1)c(O)c2=O
155 | CNC(=O)c1ccc(C(=O)OC)cc1[N+](=O)[O-]
173 to 174 | CC(Sc1nc(N)c(Br)c(Cl)n1)c1cc2ccccc2cn1 (configuration not stated)

melting point [°C] | SMILES
139 | Cc1ccc([C@@H](O)[C@H](Br)C(=O)N2C(=O)O[C@H](c3ccccc3)[C@@H]2C)cc1
63 to 65 | COC(=O)c1cc(C)sc1NC(=O)C(C)C
90 to 91 | CC1Cc2cc(C#N)ccc2C1=O (configuration not stated)
189 | CCCc1c(CSc2nnc(NC(=O)C(=O)OCC)s2)ccc(C(C)=O)c1O
174 | COc1ccc(CN(C)CCCCc2ccc(NC(=O)c3cccc4c(=O)c5cccc([N+](=O)[O-])c5[nH]c34)cc2)cc1OC
191 to 193 | CNC(=O)c1cccc(F)c1Nc1nc(Nc2ccc3c(c2)CCCC(=O)N3CCOC)ncc1Br
104 to 106 | CCOC(=O)c1cccn1Cc1ccc(Cl)cc1[N+](=O)[O-]
135 to 137 | COc1ccc2sc(C(=O)NCCCCC(=O)O)c(OC(C)C)c2c1
57 to 59 | CCOC(=O)c1cc(Cc2cccc3ccccc23)sc1NCC(C)C
74 to 78 | CSc1nc(Cl)c(-c2ccc(C)cc2)c(Cl)n1
274 to 275 | Cc1nc2sccn2c1C1=NNC(=O)CO1
188 to 190 | CC(C)(C)C(=O)Nc1ccc2oc3c(c2c1)CCC3
250 to 255 | Cn1c(=O)n(C)c2cc3c(N4CCN(C(=O)Nc5ccc(Oc6ccccc6)cc5)CC4)ncnc3cc21
230 to 232 | Cc1cc(=O)oc2c(C)c(O)c([N+](=O)[O-])cc12
160 | O=C1NC(=O)C(CC#Cc2ccc(Cl)cc2)(S(=O)(=O)c2cc(Cl)c(Cl)s2)S1 (configuration not stated)
174 to 175 | Cc1nc(N2CCN(CC3CCCCO3)C2=O)sc1C(=O)NCc1cccnc1 (configuration not stated)
102 to 104 | CSCCCn1cc(C(=O)NCc2ccc(Cl)cc2)c(=O)c2cc(CN3CCOCC3)ccc21

From a melting point compilation (Tetko et al.; mined from patent text by program, amines drawn as free bases though some values may be those of a salt)
